Measured values: patent US20250230193A1, “CYCLIC COMPOUND HAVING SELECTIVE KRAS INHIBITORY EFFECT ON HRAS AND NRAS” (CHUGAI SEIYAKU KABUSHIKI KAISHA, priority 2022, published 2025)
Where a SMILES comes first, the peptide text is derived from it. Bridges are numbered along the chain shown (N, C = ends). [ ]: non-standard residue; d: D form. hPhe(3-Cl-4-CF3) = N[C@@H](CCc1ccc(C(F)(F)F)c(Cl)c1)C(=O)O; NPrPhe(4-CF3) = CCCN[C@@H](Cc1ccc(C(F)(F)F)cc1)C(=O)O; NMeGly(cPent) = CN[C@H](C(=O)O)C1CCCC1; Pro(4,4-F2) = O=C(O)[C@@H]1CC(F)(F)CN1; Hyp = O=C(O)[C@@H]1C[C@@H](O)CN1; NMeL = CN[C@@H](CC(C)C)C(=O)O; Aze = O=C(O)[C@@H]1CCN1; Ac4c = NC1(C(=O)O)CCC1; Sar = CNCC(=O)O

Columns and labels:
[1] = biological target: GDP-bound NRAS wild-type protein (Homo sapiens, UniProt P01111); experiment: Binding to NRAS by surface plasmon resonance (SPR), Single Cycle Kinetics
[2] = biological target: GDP-bound HRAS wild-type protein (Homo sapiens, UniProt P01112); experiment: Binding to HRAS by surface plasmon resonance (SPR), Single Cycle Kinetics
[3] = KD ratio, GDP-bound NRAS wild-type vs GDP-bound KRAS wild-type, SPR
[4] = KD ratio, GDP-bound HRAS wild-type vs GDP-bound KRAS wild-type, SPR

Chain of GDP-bound HRAS wild-type protein (P01112 whole entry): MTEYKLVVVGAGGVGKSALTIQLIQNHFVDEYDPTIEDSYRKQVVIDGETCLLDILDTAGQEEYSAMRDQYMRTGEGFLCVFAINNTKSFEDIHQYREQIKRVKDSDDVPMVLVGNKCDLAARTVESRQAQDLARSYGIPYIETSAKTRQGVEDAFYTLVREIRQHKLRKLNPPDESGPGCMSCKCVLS
Chain of GDP-bound NRAS wild-type protein (P01111 whole entry): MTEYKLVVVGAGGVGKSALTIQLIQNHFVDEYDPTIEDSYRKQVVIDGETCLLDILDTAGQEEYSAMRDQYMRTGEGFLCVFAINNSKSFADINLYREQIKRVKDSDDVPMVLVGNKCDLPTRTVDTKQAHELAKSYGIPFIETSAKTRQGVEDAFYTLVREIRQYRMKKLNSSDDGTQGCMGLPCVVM

CCC(CC)[C@H]1C(=O)N(C)[C@H](C(=O)N(C)C)CC(=O)N(C)[C@@H](COC)C(=O)N[C@@H]([C@@H](C)CC)C(=O)N(C)CC(=O)N(C)[C@H]2C/C=C\CCN(C2=O)[C@@H](Cc2ccc(C(F)(F)F)cc2)C(=O)N(C)CC(=O)N[C@@H](CCc2ccc(Cl)c(Cl)c2)C(=O)N2C[C@H](OC3CCC3)C[C@H]2C(=O)NC2(CC(C)(C)C2)C(=O)N1C [PP2642]
NRAS/KRAS (ratio of KD value with respect to GDP-bound NRAS wild-type protein to KD value with respect to KRAS) ([1]; class symbols): AA (a compound having 20 or more is denoted as AA)
HRAS/KRAS (ratio of KD value with respect to GDP-bound HRAS wild-type protein to KD value with respect to KRAS) ([2]; class symbols): A (a compound having 10 or more and less than 20 is denoted as A)

CC[C@H](C)[C@@H]1NC(=O)[C@H](CC(C)C)N(CC)C(=O)C[C@@H](C(=O)N2CCOCC2)N(C)C(=O)[C@H](C2CCCC2)N(C)C(=O)C2(CCCC2)NC(=O)[C@@H]2CCCN2C(=O)[C@H](CCc2cc(F)c(C(F)(F)F)c(F)c2)NC(=O)CN(C)C(=O)[C@H](Cc2ccc(C(F)(F)F)cc2)N2CCCC[C@@H](C2=O)N(C)C(=O)CN(C)C1=O [PP0588]
NRAS/KRAS (ratio of KD value with respect to GDP-bound NRAS wild-type protein to KD value with respect to KRAS) ([1]; SPR): B (a compound having 3 or more and less than 10 is denoted as B)
HRAS/KRAS (ratio of KD value with respect to GDP-bound HRAS wild-type protein to KD value with respect to KRAS) ([2]; SPR): B (a compound having 3 or more and less than 10 is denoted as B)

CCO[C@@H]1C[C@H]2C(=O)NC3(CC(C)(C)C3)C(=O)N(C)[C@@H](C(CC)CC)C(=O)N(C)[C@H](C(=O)N(C)C)CC(=O)N(C)[C@@H](COC)C(=O)N[C@@H]([C@@H](C)CC)C(=O)N3CCC[C@H]3C(=O)N(C)[C@H]3C/C=C\CCN(C3=O)[C@@H](Cc3ccc(C(F)(F)F)cc3)C(=O)N(C)CC(=O)N[C@@H](CCc3ccc(Cl)c(Cl)c3)C(=O)N2C1 [PP2635]
NRAS/KRAS (ratio of KD value with respect to GDP-bound NRAS wild-type protein to KD value with respect to KRAS) ([1]; class symbols): AA (a compound having 20 or more is denoted as AA)
HRAS/KRAS (ratio of KD value with respect to GDP-bound HRAS wild-type protein to KD value with respect to KRAS) ([2]; class symbols): A (a compound having 10 or more and less than 20 is denoted as A)

CCCN1C(=O)CN(C)C(=O)CNC(=O)[C@H]([C@@H](C)CC)NC(=O)[C@H](CC(C)C)N(C)C(=O)C[C@@H](C(=O)N(C)C)NC(=O)[C@H](C2CCCC2)N(C)C(=O)C2(CCC2)NC(=O)[C@@H]2CC(F)(F)CN2C(=O)[C@H](CCc2ccc(C(F)(F)F)c(Cl)c2)NC(=O)CN(C)C(=O)[C@@H]1Cc1ccc(C(F)(F)F)cc1 [PP0364] ([NMeL]IG[Sar][NPrPhe(4-CF3)][Sar][hPhe(3-Cl-4-CF3)][Pro(4,4-F2)][Ac4c][NMeGly(cPent)]D-NMe2; lactam N-11)
NRAS/KRAS (ratio of KD for GDP-bound NRAS wild-type to KD for KRAS) ([1]; SPR): B (a compound having 3 or more and less than 10 is denoted as B)
HRAS/KRAS (ratio of KD for GDP-bound HRAS wild-type to KD for KRAS) ([2]; SPR): B (a compound having 3 or more and less than 10 is denoted as B)

CCCN1C(=O)[C@@H]2CCN2C(=O)CN(C)C(=O)[C@H]([C@@H](C)CC)NC(=O)[C@H](CC(C)C)N(C)C(=O)C[C@@H](C(=O)N(C)C)NC(=O)[C@H](C2CCCC2)N(C)C(=O)C2(CCC2)NC(=O)[C@@H]2C[C@@H](OCC)CN2C(=O)[C@H](CCc2ccc(C(F)(F)F)c(Cl)c2)NC(=O)CN(C)C(=O)[C@@H]1Cc1ccc(C(F)(F)F)cc1 [PP0390] ([NMeL]I[Sar][Aze][NPrPhe(4-CF3)][Sar][hPhe(3-Cl-4-CF3)][Hyp](Et)[Ac4c][NMeGly(cPent)]D-NMe2; lactam N-11)
NRAS/KRAS (ratio of KD for GDP-bound NRAS wild-type to KD for KRAS) ([1]; SPR): C (A compound having a KD ratio of 0.1 or more and less than 3 is denoted as C)
HRAS/KRAS (ratio of KD for GDP-bound HRAS wild-type to KD for KRAS) ([2]; SPR): B (a compound having 3 or more and less than 10 is denoted as B)

CCO[C@@H]1C[C@H]2C(=O)NC3(CCC3)C(=O)N(C)[C@@H](C3CCCC3)C(=O)N(C)[C@H](C(=O)N(C)C)CC(=O)N(C)[C@@H](CC)C(=O)N[C@@H]([C@@H](C)CC)C(=O)N(C)CC(=O)N(C)[C@H]3CCCCCN(C3=O)[C@@H](Cc3ccc(F)cc3Cl)C(=O)N(C)CC(=O)N[C@@H](CCc3cc(F)c(C(F)(F)F)c(F)c3)C(=O)N2C1 [PP0908]
NRAS/KRAS (ratio of KD value with respect to NRAS to KD value with respect to KRAS) [1, 3]: B (a compound having 3 or more and less than 10 is denoted as B)
HRAS/KRAS (ratio of KD value with respect to HRAS to KD value with respect to KRAS) [2, 4]: B (a compound having 3 or more and less than 10 is denoted as B)

CC[C@H](C)[C@@H]1NC(=O)[C@H](CC(C)C)N(C)C(=O)C[C@@H](C(=O)N2CCOCC2)N(C)C(=O)[C@H](C2CCCC2)N(C)C(=O)C2(CCC2)NC(=O)[C@@H]2C[C@@H](OCC(F)F)CN2C(=O)[C@H](CCc2cc(F)c(C(F)(F)F)c(F)c2)NC(=O)CN(C)C(=O)[C@H](Cc2ccc(C(F)(F)F)cc2)N2CCCC[C@@H](C2=O)N(C)C(=O)CN(C)C1=O [PP1002]
NRAS/KRAS (ratio of KD value with respect to NRAS to KD value with respect to KRAS) [1, 3]: B (a compound having 3 or more and less than 10 is denoted as B)
HRAS/KRAS (ratio of KD value with respect to HRAS to KD value with respect to KRAS) [2, 4]: B (a compound having 3 or more and less than 10 is denoted as B)

CCO[C@@H]1C[C@H]2C(=O)NC3(CC(C)(C)C3)C(=O)N(C)[C@@H](C(CC)CC)C(=O)N3CCC[C@@H]3CC(=O)N(C)[C@@H](CC3CC3)C(=O)N[C@@H]([C@@H](C)CC)C(=O)N(C)CC(=O)N(C)[C@H]3C/C=C\CCN(C3=O)[C@@H](Cc3ccc(C(F)(F)F)cc3)C(=O)N(C)CC(=O)N[C@@H](CCc3cc(F)c(C(F)(F)F)c(F)c3)C(=O)N2C1 [PP1610]
NRAS/KRAS (ratio of KD value for NRAS to KD value for KRAS) [1, 3]: A (a compound having 10 or more and less than 20 is denoted as A)
HRAS/KRAS (ratio of KD value for HRAS to KD value for KRAS) [2, 4]: A (a compound having 10 or more and less than 20 is denoted as A)
